Data published in the NIST ThermoML archive (doi:10.1016/j.jct.2015.10.026).
Numbers after ± are expanded uncertainties.

Experiments:
[1] = 101.33 kPa, Liquid; for electrical conductivity: Direct current cell with electrodes; for mass density: Vibrating tube method
[2] = mn = molality of the nth substance listed, in mol/kg; settings: 100 kPa, Liquid, Capillary tube (Ostwald / Ubbelohde) method, m2 = 0

CCCCn1cc[n+](C)c1.NCCS(=O)(=O)[O-] [1-butyl-3-methylimidazolium taurate]
[1], Cone and plate viscometry
Settings	viscosity [mPa·s]
293.15 K	1761.4 ± 130
298.15 K	1169.2 ± 78
303.15 K	799.87 ± 48
308.15 K	561.88 ± 30
313.15 K	405.34 ± 19
318.15 K	298.26 ± 13
323.15 K	224.97 ± 8.9

[1]
Settings	electrical conductivity [S/m]	mass density [kg/m3]
293.15 K	0.0098 ± 0.0003	1195.4 ± 4.9
298.15 K	0.0161 ± 0.0005	1192.1 ± 4.9
303.15 K	0.0257 ± 0.0008	1188.77 ± 4.9
308.15 K	0.0356 ± 0.0011	1185.4 ± 4.8
313.15 K	0.0518 ± 0.0016	1182.02 ± 4.8
318.15 K	0.0697 ± 0.0021	1178.53 ± 4.8
323.15 K	0.0922 ± 0.0028	1175.06 ± 4.7

O [water]
[1], Capillary tube (Ostwald / Ubbelohde) method
Settings	viscosity [mPa·s]
293.15 K	1.003 ± 0.021
298.15 K	0.89 ± 0.019
303.15 K	0.797 ± 0.017
308.15 K	0.719 ± 0.015
313.15 K	0.653 ± 0.014

O [water] + CCCCn1cc[n+](C)c1.NCCS(=O)(=O)[O-]
[2]
Settings	viscosity [mPa·s]
293.15 K	1.003 ± 0.021
298.15 K	0.89 ± 0.019
303.15 K	0.797 ± 0.017
308.15 K	0.719 ± 0.015
313.15 K	0.653 ± 0.014
